Test system: Glucose-6-Phosphatase-System
Assay: Glucose-6-phosphatase enzyme test in liver microsomes (phosphate released from glucose-6-phosphate)
Format: biochemical, Wistar-Ratten
Conditions: Inhibitorkonzentration 100 µM; Glucose-6-Phosphat 1 mMol/l, 0,1 mg Mikrosomen-Fraktion, pH 7,0, 20 min, room temperature
Procedure: Die Wirkung der erfindungsgemäßen Verbindungen auf das Glucose-6-Phosphatase-System wurde in einem Enzymtest in Lebermikrosomen untersucht.
Für die Präparation der die Glucose-6-Phosphatase enthaltenden Mikrosomen-Fraktion wurden frische Leber-Organe von männlichen Wistar-Ratten verwendet und wie in der Literatur beschrieben aufgearbeitet [Canfield, W. K. Und Arion, W.J., J. Biol. Chem. 263, 7458-7460, (1988)]. Diese Mikrosomen-Fraktion kann bei -70°C mindestens 2 Monate lang ohne signifikamten Aktivitätsverlust aufbewahrt werden.
Der Nachweis der Glucose-6-Phosphatase-Aktivität wurde wie in der Literatur angegeben (Arion, W. J. in Methods Enzymol. 174, Academic Press 1989, Seite 58 - 67) durch Bestimmung des aus Glucose-6-Phosphat freigesetzten Phosphats durchgeführt. 0,1 ml Testansatz enthielten Glucose-6-Phosphat (1mMol/l), die Testsubstanz, 0,1 mg Mikrosomen-Fraktion und 100 mMol/l HEPES-Puffer (4-(2-Hydroxyethyl)piperazin-1-ethansulfonsäure), pH 7,0. Die Reaktion wurde durch Zugabe des Enzyms gestartet. Nach Ablauf von 20 Minuten bei Raumtemperatur wurde die Reaktion durch Zugabe von 0,2 ml Phosphat-Reagens gestoppt. Die Probe wurde 30 Minuten lang bei 37 °C inkubiert, und die Absorbtion (A) der blauen Farbe anschließend bei 570 nm gemessen. Die inhibitorische Wirksamkeit der Testsubstanz ergab sich durch Vergleich mit einer Kontroll-Reaktion, die keine Testsubstanz enthielt nach der Formel Prozent Hemmung =(A(Kontrolle) - A(Testsubstanz))/(A(Kontrolle))x 100 [formula]
Die hemmende Wirkung der Testsubstanz (Verbindungen 1 - 43) wurde bei den in der nachfolgenden Tabelle 1 angegebenen Konzentrationen der Testsubstanz ermittelt.

| SMILES | % Hemmung [%] |
| --- | --- |
| O=C(CCCc1ccc(Cl)cc1)Nc1ccc(-c2ccc(Cl)s2)c(C(=O)O)c1 [Beispiel 10] | 62 |
| COc1ccc2cc(-c3ccc(NC(=O)C4CC4)cc3C(=O)O)ccc2c1 [Beispiel 5] | 51 |
| COc1ccc(OC)c(CC(=O)Nc2ccc(-c3ccc4cc(OC)ccc4c3)c(C(=O)O)c2)c1 [Beispiel 7] | 63 |
| COc1ccc2cc(-c3ccc(NC(=O)C=Cc4ccccc4)cc3C(=O)O)ccc2c1 [Beispiel 1] | 53 |
| COc1ccc2cc(-c3ccc(NC(=O)c4cccs4)cc3C(=O)O)ccc2c1 [Beispiel 3] | 93 |
| O=C(Nc1ccc(-c2ccco2)c(C(=O)O)c1)c1cnc2ccccc2n1 [Beispiel 15] | 63 |
| CC(C)(C)c1ccc(-c2ccc(NC(=O)C3CCCC3)cc2C(=O)O)cc1 [Beispiel 17] | 53 |
| O=C(Nc1ccc(-c2cccs2)c(C(=O)O)c1)c1ccc2ccccc2c1 [Beispiel 13] | 53 |
| COc1ccc2cc(-c3ccc(NC(=O)CCC4CCCC4)cc3C(=O)O)ccc2c1 [Beispiel 9] | 64 |
| COc1ccc2cc(-c3ccc(NC(=O)c4cccc(F)c4)cc3C(=O)O)ccc2c1 [Beispiel 8] | 77 |
| COc1ccc2cc(-c3ccc(NC(=O)c4ccco4)cc3C(=O)O)ccc2c1 [Beispiel 6] | 61 |
| COc1ccc2cc(-c3ccc(NC(=O)Cc4ccc(OC)c(OC)c4)cc3C(=O)O)ccc2c1 [Beispiel 2] | 60 |
| O=C(Nc1ccc(-c2ccco2)c(C(=O)O)c1)c1ccc2ccccc2c1 [Beispiel 14] | 57 |
| CC(C)(C)c1ccc(-c2ccc(NC(=O)COc3ccccc3)cc2C(=O)O)cc1 [Beispiel 16] | 50 |
| O=C(Nc1ccc(-c2ccc(Cl)s2)c(C(=O)O)c1)c1ccc2ccccc2c1 [Beispiel 12] | 71 |
| O=C(Nc1ccc(CCCCCl)c(C(=O)O)c1)Nc1ccc(Cl)c(C(F)(F)F)c1 [Beispiel 4] | 66 |
| O=C(C=Cc1ccccc1)Nc1ccc(-c2ccc(Cl)s2)c(C(=O)O)c1 [Beispiel 11] | 57 |

Same assay, conditions: Inhibitorkonzentration 12,5 µM; Glucose-6-Phosphat 1 mMol/l, 0,1 mg Mikrosomen-Fraktion, pH 7,0, 20 min, room temperature; 12.5 µM

| SMILES | % Hemmung [%] |
| --- | --- |
| COc1cccc(C(=O)Nc2ccc(C#Cc3ccccc3)c(C(=O)O)c2)c1 [Beispiel 18] | 98 |
| N#Cc1cccc(C(=O)Nc2ccc(C#Cc3ccccc3)c(C(=O)O)c2)c1 [Beispiel 19] | 98 |
| Cc1ccc(C#Cc2ccc(NC(=O)c3cccc([N+](=O)[O-])c3)cc2C(=O)O)cc1 [Beispiel 38] | 50 |
| Cc1ccc(C#Cc2ccc(NC(=O)c3cnc4ccccc4n3)cc2C(=O)O)cc1 [Beispiel 29] | 73 |
| Cc1ccc(C#Cc2ccc(NC(=O)c3cccc(C(F)(F)F)c3)cc2C(=O)O)cc1 [Beispiel 34] | 50 |
| COc1ccc(C(=O)Nc2ccc(C#Cc3ccc(C)cc3)c(C(=O)O)c2)cc1OC [Beispiel 32] | 61 |
| O=C(O)c1cc(NC(=O)c2c(F)c(F)c(F)c(F)c2F)ccc1C#Cc1ccccc1 [Beispiel 26] | 54 |
| O=C(Nc1ccc(C#Cc2ccccc2)c(C(=O)O)c1)c1cccc(F)c1 [Beispiel 22] | 100 |
| O=C(Nc1ccc(C#Cc2ccccc2)c(C(=O)O)c1)c1cccc([N+](=O)[O-])c1 [Beispiel 25] | 51 |
| Cc1ccc(C#Cc2ccc(NC(=O)C(F)(F)C(F)(F)C(F)(F)F)cc2C(=O)O)cc1 [Beispiel 41] | 71 |
| COc1ccc(C(=O)Nc2ccc(C#Cc3ccc(C)cc3)c(C(=O)O)c2)c(OC)c1 [Beispiel 30] | 52 |
| CC(C)(O)C(=O)Nc1ccc(C#Cc2ccccc2)c(C(=O)O)c1 [Beispiel 28] | 60 |
| O=C(O)c1cc(NC(=O)C2CCCCC2)ccc1C#Cc1ccccc1 [Beispiel 24] | 58 |
| COc1cccc(C(=O)Nc2ccc(C#Cc3ccc(C)cc3)c(C(=O)O)c2)c1 [Beispiel 36] | 78 |
| Cc1ccc(C#Cc2ccc(NC(=O)CCC3CCCC3)cc2C(=O)O)cc1 [Beispiel 35] | 76 |
| CC(C)(C)CC(=O)Nc1ccc(C#Cc2ccccc2)c(C(=O)O)c1 [Beispiel 27] | 58 |
| Cc1ccc(C#Cc2ccc(NC(=O)C(C)C)cc2C(=O)O)cc1 [Beispiel 40] | 94 |
| Cc1ccc(C#Cc2ccc(NC(=O)c3ccccc3O)cc2C(=O)O)cc1 [Beispiel 43] | 55 |
| Cc1ccc(C#Cc2ccc(NC(=O)c3cccc(Cl)c3)cc2C(=O)O)cc1 [Beispiel 37] | 55 |
| O=C(Nc1ccc(C#Cc2ccccc2)c(C(=O)O)c1)c1ccccc1Cl [Beispiel 20] | 100 |
| O=C(Nc1ccc(C#Cc2ccccc2)c(C(=O)O)c1)c1cccc(C(F)(F)F)c1 [Beispiel 23] | 63 |
| COc1cc(OC)cc(C(=O)Nc2ccc(C#Cc3ccc(C)cc3)c(C(=O)O)c2)c1 [Beispiel 31] | 64 |
| O=C(Nc1ccc(C#Cc2ccccc2)c(C(=O)O)c1)c1ccc(Cl)cc1Cl [Beispiel 21] | 84 |
| Cc1ccc(C#Cc2ccc(NC(=O)c3cc(C(F)(F)F)cc(C(F)(F)F)c3)cc2C(=O)O)cc1 [Beispiel 33] | 77 |
| Cc1ccc(C#Cc2ccc(NC(=O)c3cccc4ccccc34)cc2C(=O)O)cc1 [Beispiel 42] | 60 |
| Cc1ccc(C#Cc2ccc(NS(=O)(=O)c3ccc([N+](=O)[O-])cc3)cc2C(=O)O)cc1 [Beispiel 39] | 62 |
